Like-named read-outs stand apart in the source and are kept apart here.
What was measured:
[1] = system: KHOS/NP osteosarcoma xenograft; test: KHOS/NP osteosarcoma xenograft model; assay type: in vivo, nu/nu athymic mice; settings: day 32; olaratumab 60 mg/kg (loading dose 214 mg/kg), doxorubicin 3 mg/kg, i.p. twice a week; versus saline control
Method: 6 to 7-week-old female nu/nu athymic mice are injected with 1×10^6 KHOS/NP (ATCC #CRL-1544) cells/mouse in 50% Matrigel (BD Biosciences #356235). When tumors are approximately 450 mm^3 in volume, the mice are randomized by tumor volume into 4 treatment groups (n=12): Group 1 control mice are dosed with USP Saline (Aldwin Scientific #2F7124) at 10 μL/gram, Group 2 mice are dosed with olaratumab at 60 mg/kg (loading dose 214 mg/kg), Group 3 mice are dosed with doxorubicin (Sigma #D-1515) at 3 mg/kg and Group 4 mice are dosed with a combination of olaratumab and doxorubicin at the monotherapy concentrations of 60 mg/kg olaratumab and 3 mg/kg doxorubicin. The combinations are dosed so that doxorubicin is administered 3 hours prior to olaratumab on the days of treatment. All treatments are administered via intra-peritoneal injection twice a week on Monday and Thursday.
(§1) Olaratumab and doxorubicin are prepared in USP Saline. Tumor volume is measured by three dimensional caliper measurements twice a week during the course of the study and calculated as volume in mm^3=L (longer of measured dimension)×W^2 (shorter dimension)×(pi/6). […] Relative changes in tumor volume (% T/C) are calculated using the tumor volume measurements taken at day 32, whereas the baseline tumor volume is the volume recorded on or just prior to first day of dosing.

[2] = system: patients with advanced STS; settings: interim analysis; for Disease Control Rate (CR + PR + SD) (%) (90% CI) / ORR (CR + PR) (%) (90% CI): RECIST 1.1
Method: The Study is an open-label, multicenter, Phase 2 trial in which patients with advanced STS not amenable to treatment with surgery or radiotherapy are treated with olaratumab in combination with doxorubicin or doxorubicin alone.
Enrolled patients who meet all eligibility criteria are randomized 1:1 to one of two treatment arms, Arm A or Arm B. Arm A patients receive olaratumab in combination with doxorubicin (hereinafter the “Combination Arm”) and Arm B patients receive doxorubicin alone (hereinafter the “Doxorubicin Arm”). Randomization of this Study is performed according to a dynamic randomization algorithm using 4 pre-defined risk factors: PDGFRα expression (positive vs. negative), number of previous lines of treatment (0 vs. 1+lines), histological tumor type (i.e., leiomyosarcoma vs. synovial sarcoma vs. other tumor type), and ECOG performance status (0-1 vs. 2). This dynamic randomization procedure is used to minimize imbalance between treatment groups. To determine tumor type and PDGFRα expression in patients, a tumor sample from either a biopsy or previously archived tumor tissue sample is sufficient. Biopsy is required to be performed within 21 days prior to randomization; archived tissue sample must also be available within this timeframe.
Combination Arm: 64 patients randomized in the Combination Arm receive 15 mg/kg of olaratumab on Days 1 and 8 of each 21-day treatment cycle, in combination with 75 mg/m^2 doxorubicin administered on Day 1 of each cycle. (Note: if premedication is required prior to the first doxorubicin infusion, this is to be done after the completion of olaratumab infusion, not before the olaratumab infusion. This premedication may be administered within the hour that follows completion of the olaratumab infusion.) The actual (not planned) administration of each doxorubicin infusion defines Day 1 of each 21-day treatment cycle. The combination treatment just described is to continue for up to 8 cycles at the investigator's discretion. During Cycles 5 through 8, patients being treated with doxorubicin may also be administered 750 mg/m^2 dexrazoxane on Day 1 of each cycle, (at the investigator's discretion) prior to doxorubicin on Day 1 of each 21-day cycle. If the dose of doxorubicin is reduced at any point in the Study, the dose of dexrazoxane is to be reduced accordingly, maintaining a dosage ratio of 10:1. For example, if doxorubicin is reduced to 60 mg/m^2, then dexrazoxane is to be reduced to 600 mg/m^2. Doxorubicin may be administered within the hour that follows completion of the olaratumab infusion. In the absence of PD or other withdrawal criteria, patients in the Combination Arm who have completed eight cycles of therapy are to receive subsequent olaratumab monotherapy, administered on Days 1 and 8 of each 21-day cycle. Furthermore, if doxorubicin is discontinued (e.g., for reasons of toxicity) prior to end of cycle 8 and in the absence of withdrawal criteria, patients may continue to receive olaratumab monotherapy. For patients who discontinue olaratumab during the first 8 cycles of treatment, doxorubicin may be continued (for up to 8 cycles), provided no withdrawal criteria are met.
Doxorubicin Arm: 65 patients randomized in the Doxorubicin Arm receive 75 mg/m^2 doxorubicin on Day 1 of each cycle, for up to 8 cycles at the investigator's discretion. The actual (not planned) administration of each doxorubicin infusion defines Day 1 of each 21-day treatment cycle. During cycles 5 through 8, 750 mg/m^2 dexrazoxane may also be administered on Day 1 of each cycle, (at the investigator's discretion) prior to doxorubicin on Day 1 of each 21-day cycle. If the dose of doxorubicin is reduced at any point in the Study, the dose of dexrazoxane is to be reduced accordingly, maintaining a dosage ratio of 10:1. For example, if doxorubicin is reduced to 60 mg/m^2, then dexrazoxane is to be reduced to 600 mg/m^2.

[3] = system: SKLMS-1 leiomyosarcoma xenograft; test: SKLMS-1 leiomyosarcoma xenograft model; assay type: in vivo, nu/nu athymic mice; settings: day 21; olaratumab 60 mg/kg (loading dose 214 mg/kg), doxorubicin 3 mg/kg, i.p. twice a week; versus saline control
Method: 6 to 7-week-old female nu/nu athymic mice are injected with 5×10^6 SKLMS-1 (ATCC #HBT-88) cells/mouse in 50% Matrigel (BD Biosciences #356235). When tumors are approximately 300 mm^3 in volume, the mice are randomized by tumor volume into 4 treatment groups (n=12): Group 1 control mice are dosed with USP Saline (Aldwin Scientific #2F7124) at 10 μL/gram, Group 2 mice are dosed with olaratumab at 60 mg/kg (loading dose 214 mg/kg), Group 3 mice are dosed with doxorubicin (Sigma #D-1515) at 3 mg/kg and Group 4 mice are dosed with a combination of olaratumab and doxorubicin at the monotherapy concentrations of 60 mg/kg olaratumab and 3 mg/kg doxorubicin. The combinations are dosed so that olaratumab is administered 1-2 hours prior to doxorubicin on the days of treatment. All treatments are administered via intra-peritoneal injection twice a week on Tuesday and Friday.
as §1, with “21 and” for “32, whereas”

[4] = system: A204 rhabdoid tumor xenograft; test: A204 rhabdoid xenograft model; assay type: in vivo, nu/nu athymic mice; settings: day 30; olaratumab 40 mg/kg i.p. 3x a week; versus HuIgG control
Method: 7 to 8-week-old female nu/nu athymic mice are injected with 5×10^6 A204 (ATCC #CRL-7900) cells/mouse in 100% Matrigel (BD Biosciences #356235). When tumors are approximately 340 mm^3 in volume, the mice are randomized by tumor volume into 2 treatment groups (n=12): Group 1 control mice are dosed with HuIgG (Equitech-Bio #SLH66-0001) at 40 mg/kg and Group 2 mice are dosed with olaratumab at 40 mg/kg. All treatments are administered via intra-peritoneal injection 3×a week on Monday, Wednesday and Friday.
Olaratumab is diluted in USP Saline (Aldwin Scientific #2F7124) at 4 mg/mL. Tumor volume is measured by three dimensional caliper measurements twice a week during the course of the study and calculated as volume in mm^3=L (longer of measured dimension)×W^2 (shorter dimension)×(pi/6). A repeated measures ANOVA is used to evaluate the differences in tumor growth and body weight between the treatment groups. Relative changes in tumor volume (%T/C) are calculated using the tumor volume measurements taken at day 30, whereas the baseline tumor volume is the volume recorded on or just prior to first day of dosing.

[5] = patients sub-typed with leiomyosarcoma

Compound: COc1cccc2c1C(=O)c1c(O)c3c(c(O)c1C2=O)C[C@@](O)(C(=O)CO)C[C@@H]3O[C@H]1C[C@H](N)[C@H](O)[C@H](C)O1 [doxorubicin]
- % T/C (relative change in tumor volume) [1]: 72%
- OS Median Weeks (90% CI) ([2]; all STS subtypes, Kaplan-Meier): 58.7 weeks
- PFS Median Weeks (90% CI) ([2]; all STS subtypes, Kaplan-Meier, olaratumab 15 mg/kg Days 1 and 8, doxorubicin 75 mg/m^2 Day 1, 21-day cycle): 17.9 weeks
- 12-month OS rate ([2]; 12 months): 55.1%
- 18-month OS rate ([2]; 18 months): 40.0%
- Disease Control Rate (CR + PR + SD) (%) (90% CI) [2]: 53.8%
- ORR (CR + PR) (%) (90% CI) [2]: 10.8%
- Disease Control Rate (CR + PR + SD) (%) (90% CI) ([2]; listed as Doxorubicin Arm): 53.8%
- ORR (CR + PR) (%) (90% CI) ([2]; listed as Doxorubicin Arm): 10.8%
- PFS Other Sarcoma Median Weeks (90% CI) ([2]; patients sub-typed as other sarcomas): 19.0 weeks
- OS Leiomyosarcoma Median Weeks (90% CI) [2, 5]: 45.3 weeks
- PFS Leiomyosarcoma Median Weeks (90% CI) [2, 5]: 15.7 weeks
- OS Other Sarcoma Median Weeks (90% CI) ([2]; patients sub-typed with other sarcomas): 78.1 weeks
- % T/C (relative change in tumor volume) [3]: 64%

Compound: olaratumab: recombinant human monoclonal IgG1 anti-PDGFRα antibody; two heavy chains SEQ ID NO: 9, two light chains SEQ ID NO: 10; CAS 1024603-93-7
- % T/C (relative change in tumor volume) [1]: 79%
- % T/C (relative change in tumor volume) [4]: 37%
- % T/C (relative change in tumor volume) [3]: 64%

Reference: patent US20170129958A1, “COMBINATION THERAPY” (ImClone LLC, priority 2014, published 2017)
